How the values were obtained:
[1] = Interconversion of form II to form I in stirred suspension, crystal form determined using XRPD; assay type: physicochemical
Experimental: Samples after being powdered in a mortar and pestle are applied directly on silicon plate holder. The X-ray powder diffraction pattern was measured with Philips X'Pert PRO X-ray powder diffractometer, equipped with Cu irradiation source=1.54060 ? ( ? ngstrom), X'C.elerator (2.022° 2Θ) detector. Scanning parameters: angle range: 3-40 deg., step size 0.0167, time per step 100 s, continuous scan. The accuracy of peak positions was defined as ±0.2 degrees due to experimental differences like instrumentations and sample preparations.
(§1) 27.0 g of Lacosamide was dissolved in 300 ml of ethyl acetate. Solution crystallized by cooling at about 42° C. Suspension was cooled to 40° C. and samples were taken in time intervals, filtered and crystal form was determined using XRPD. […] Crystals were filtered, washed with ethyl acetate and dried at 50° C./vacuo yielding 20.0 g Lacosamide form I.
as §1, with “30.0” for “27.0”, “239” for “300”, “acetate and 1 ml of water.” for “acetate.”, “46°” for “42°”, “with cold” for “with”, “22.9” for “20.0”

[2] = Temperature dependent X-ray powder diffraction, heating of form II; assay type: physicochemical
Experimental: Temperature dependent X-ray powder diffraction (TDXD) was carried out with a Bruker AXS D8 θ-θ powder diffractometer with parafocusing Bragg-Brentano geometry using CuKα radiation (λ=1.5418 Å, U=34 kV, I=20 mA). The sample was placed on a Pt/Rh ribbon in a MRI high-temperature oven-camera and VPSlits were used to fix the constant irradiated length (20 mm). Data were scanned with an ultrafast detector LynxEye over the angular range 3-38° (2θ) with a step size of 0.0196° (2θ) and a counting time of 58.6 s step^−1. The heating and cooling process was controlled by Eurotherm 2404.
The sample of form II lacosamide (50 mg) was placed on a Pt/Rh ribbon in a MRI high-temperature oven-camera, and heated at rate of 10° C./min up to 100° C. The heating and cooling process was controlled by Eurotherm 2404.

| Compound | crystal form determined using XRPD ([1]; suspension in ethyl acetate and water (239 ml/1 ml), after 2 hours at 40° C.) | crystal form determined using XRPD ([1]; suspension in ethyl acetate and water (239 ml/1 ml), sample taken immediately when temperature reached 40° C.) | crystal form determined using XRPD ([1]; suspension in ethyl acetate, after 2 hours at 40° C.) | crystal form determined using XRPD ([1]; suspension in ethyl acetate, after 4 hours at 40° C.) | crystal form determined using XRPD ([1]; suspension in ethyl acetate, sample taken immediately when temperature reached 40° C.) | temperature of transformation of form II to form III ([2]; heated at 10° C./min up to 100° C.) | reversibility of transformation of form II to form III ([2]; sample cooled back to room temperature) |
| --- | --- | --- | --- | --- | --- | --- | --- |
| COC[C@@H](NC(C)=O)C(=O)NCc1ccccc1 [Lacosamide, (R)-N-benzyl-2-acetamido-3-methoxypropionamide] | form I | mixture of form I and form II | mixture of form I and form II | form I | form II | – | – |
| COC[C@@H](NC(C)=O)C(=O)NCc1ccccc1 [form II lacosamide, (R)-N-benzyl-2-acetamido-3-methoxypropionamide] | – | – | – | – | – | around 80 °C | completely reversible |

— patent US20090298947A1, “POLYMORPHIC AND AMORPHOUS FORMS OF […] AMORPHOUS COMPOSITIONS” (PLIVA HRVATSKA D.O.O., priority 2008, published 2009)
